In patent US8858952B2, “Methods and materials for generating T cells” (Mayo Foundation for Medical Education and Research, priority 2009, dated 2014):

Columns and labels:
[1] = test system: CD4 T cells; assay: Proliferation assay of CD4 and CD8 T cells from FR74-immunized mice; assay type: cell-based; details: but not CD8 T cells, from FR74-immunized FVB mice, FIG. 3A
Description: FIG. 3A is a plotting the stimulation indices from a proliferation assay in which CD4 and CD8 T cells from FR74-immunized mice were tested for response to non-specific stimulation (PHA), FR74 polypeptide, or an irrelevant polypeptide (Irrel pep). The stimulation index is the ratio of the thymidine incorporation in the sample with antigen and the controls ample. FIG. 3B is a graph plotting results of an IFN-γELlspot (enzyme-linked immunosorbent spot) analysis of FR74-specific T cell lines stimulated in vitro with dendritic cells (DC) pulsed with either FR74 polypeptide, FRα-overexpressing tumor cell lysate (MMC lysate), or an irrelevant polypeptide antigen (Irrel pep). Each bar is the mean (±s.e.m.) of 3 replicates.
The FR74 polypeptide can activate CD4 T cells in FVB and B6 mice, and it is naturally processed.

[2] = test system: FR74-specific T cells; assay: IFN-γ ELIspot of T cell cultures generated ex vivo with polypeptide-pulsed DC; assay type: cell-based, FVB/N mice
Description: FIG. 4 is a graph plotting the results an IFN-γ ELIspot analyses of T cell cultures incubated with the indicated polypeptides. Epitope nesting greatly augments the numbers of antigen-specific T cells. T cells were tested in ELIspot against native FR74 polypeptide at various concentrations. Each data point is the mean of 3 determinations.
FIG. 6. FR74-specific T cells generated with modified polypeptides recognized tumor lysates. […] Each bar is the mean (±s.e.m.) of 3 replicates.
FIG. 7. […] The T cells were generated at varying concentrations of polypeptides (x-axis). Each point is the mean (±s.e.m.) of 3 replicates.
In terms of proliferation, only the dual modified polypeptide was able to generate T cells that were able to proliferate at 10^−9 g/mL (FIG. 5).
In order to determine whether furin cleavage is required, two methods are used: furin insensitive linkers and furin inhibitors. Blockade of enhanced ex vivo expansion mediated by the DC3 peptide using these two methods is powerful evidence, outside of a furin knockout mouse, that furin is required for the actions of DC3. Although it has already been shown that DC3 must be linked to antigen, as a control T cells are expanded using free FR74 mixed with free DC3. To test the role of furin with furin-insensitive linkers, RARR (SEQ ID NO:4) is replaced with VRVV (SEQ ID NO:41) with the polypeptides FR74.1, FR74.3, and FR74.8 as shown in FIG. 17. In parallel with these cultures, cultures are included in which inhibitors are included. The stoichiometric peptidyl inhibitor decanoyl-Arg-Val-Lys-Arg-CH2CL (SEQ ID NO:42) and α1-antitrypsin Portland, which are the two most commonly used inhibitors, are employed. […] Cultures are examined over a range of concentrations of inhibitors and assayed as described with ELIspot and proliferation assays. To generate Th cells, CD4^+ T cells are purified by incubation of splenocytes with anti-CD4^+ MACS microbeads (Miltenyi, Auburn, Calif.) for 20 minutes at 4° C., followed by positive selection of CD4^+ T cells using an AutoMACS automatic magnetic cell sorter according to the manufacturer's specifications. Th cell lines are established with bone marrow derived DC at a concentration of 5×10^4 T cells/mL in 24-well tissue culture-treated plates in complete medium on day 0. To derive the dendritic cells (DCs), bone marrow is harvested from the long bones of FVB/N mice and seeded in 6-well plates (3×10^6/well) in complete media with murine GM-CSF (10 ng/mL) and IL-4 (1 ng/mL). Media and cytokines are replaced after 3 days. On day 5, CPG is added to the cultures at 1 μg/mL, and the cells are ready for T cell induction on day 6. The tissue culture-generated DC are pulsed with 10 μg/mL FR74 peptide or its modifications and 10 μg/mL B7DC-crosslinking antibody at 37° C. for 4 hours. In these experiments, constant mass is maintained. Next, the peptide-loaded DC are washed with media, and the CD4+ T cells are added, and on days 8 and 10, IL-2 (50 U/mL) is added. On day 15, cells are assayed. For the ELIspot analysis, anti-IFN-γ (Pharmingen) antibody is added to a 96-well nitrocellulose-backed plate (NC-plate, Millipore) at 50 μL/well at a concentration of 10 μg/mL in PBS and incubated overnight at 4° C. The day of analysis, the NC-plate is washed with PBS and blocked for 1-2 hours at 37° C. with PBS/2%BSA. After blocking, the plate are again washed. The Th cells are transferred to the antibody-coated plates. Syngeneic naïve CD4 T cells alone without peptide antigen are used as the negative control. Th cells are seeded at 5×10^4 cells/well with a range of native (i.e., FR74) peptide, irrelevant peptide, FRαMMC tumor lysate, irrelevant tumor lysate, media or concanavalin A. Irradiated syngeneic splenocytes are added at 1 ×10^5 cells/well as antigen-presenting cells. The plate is incubated at 37° C. for 24 hours. The plate are washed with PBS/0.05% Tween-20, and 100 μL/well biotinylated anti-IFN-γ(5 μg/mL, Pharmingen) antibody are added to each well. […]

[3] = Immunogenicity of FR74 used as a vaccine with adjuvant; assay type: in vivo; details: with complete Freund's adjuvant (CFA), CpG, or GM-CSF
Text: A native helper epitope designated FR74 was a peptide derived from the folate receptor alpha (FRα) (FIG. 2). FRα (also referred to as folate binding protein) is a glycophosphatidyl-anchored membrane glycoprotein that mediates cellular uptake of folate. This polypeptide is over-expressed on many cancers at levels of up to 80-90-fold relative to the levels observed on normal tissues. FRα is an antigen that can be used across strains, which allows one to test various strategies amongst many different I-A and I-E backgrounds. […] FR74 was modified at the amino-terminus end with an Ii-key and at the carboxy terminus with a DC3 amino acid motif (FIG. 2). To reduce enzymatic degradation in cell culture, the amino terminus of FR74 was acetylated to make FR74.1. FR74.2 is FR74 conjugated to Ii-key. It is attached with a flexible, noncleavable linker FR74.3 is FR74 conjugated to a DC3 polypeptide using a furin sensitive linker to permit cleavage. Furin is an endopeptidase that normally proteolytically activates a large number of proproteins in the cell, and it is predominantly localized to the […] (Thomas, G., Nat. Rev. Mol. Cell Biol., 3(10):753-66 (2002)). FR74.4 is a dual conjugated polypeptide. All modified peptides were acetylated at the amino terminus to prevent degradation.

[4] = molecular target: furin (Homo sapiens, UniProt P09958); details: cited from earlier work
furin, sequence (P09958 108-794, species assumed): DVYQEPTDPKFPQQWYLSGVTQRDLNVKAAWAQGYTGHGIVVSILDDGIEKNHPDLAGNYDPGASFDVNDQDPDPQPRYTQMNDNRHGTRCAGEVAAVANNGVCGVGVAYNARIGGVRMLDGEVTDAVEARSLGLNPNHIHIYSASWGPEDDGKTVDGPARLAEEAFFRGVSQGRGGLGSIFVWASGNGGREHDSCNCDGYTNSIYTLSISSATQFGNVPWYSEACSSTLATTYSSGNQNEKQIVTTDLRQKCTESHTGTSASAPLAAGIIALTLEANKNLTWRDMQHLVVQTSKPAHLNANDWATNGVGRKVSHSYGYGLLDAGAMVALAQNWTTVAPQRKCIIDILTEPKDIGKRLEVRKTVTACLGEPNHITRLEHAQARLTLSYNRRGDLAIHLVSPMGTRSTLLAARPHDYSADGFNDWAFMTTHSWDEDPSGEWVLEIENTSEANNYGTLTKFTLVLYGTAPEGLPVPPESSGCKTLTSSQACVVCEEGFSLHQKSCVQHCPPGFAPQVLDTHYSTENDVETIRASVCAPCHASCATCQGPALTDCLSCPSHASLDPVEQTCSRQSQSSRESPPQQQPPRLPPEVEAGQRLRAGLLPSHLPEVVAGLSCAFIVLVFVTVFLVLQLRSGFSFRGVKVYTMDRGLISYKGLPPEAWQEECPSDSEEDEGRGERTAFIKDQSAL

[5] = test system: Th cells; assay: Cytokine secretion and Th subsets of T cell cultures under varied culture conditions; assay type: cell-based
Description: FIG. 19. […] Cytokines were measured following stimulation of cells with splenocytes pulsed with either no antigen (open bars) or native FR74 polypeptide. To avoid contamination of cell culture supernatants with splenocyte-derived cytokines, the T cells were purified from the splenocytes prior to incubation to measure cytokines Each bar is the mean (±s.e.m.) of duplicate samples. Results are representative of 2 experiments.
FIG. 20. Manipulation of culture conditions can reduce levels of IL-5 and IL-10 secreting Th cells. Shown are the concentrations of IL-5 and IL-10 within T-cell culture media following simulation of Th cells with or without peptide antigen. Each bar is the mean (±s.e.m.) of duplicate samples.
FIG. 25. Manipulation of culture conditions can reduce levels of IL-5 secreting T cells. Shown are the concentrations of IL-5 within T cell culture media following stimulation of Th cells with or without polypeptide antigen. Each bar is the mean (±s.e.m.) of duplicate samples.
FIG. 26. […] Shown are the concentrations of IL-17 within T cell culture media following simulations of Th cells with or without polypeptide antigen. Each bar is the mean (±s.e.m.) of duplicate samples.
Another item is that Th subset skewing may occur which could cloud interpretations of the polypeptide modifications. […]

KDISYLYRFNWNHCG [FR74]
proliferation in response to the FR74 polypeptide (stimulation index) [1]: increased proliferation
recognition of FRα+ tumor lysates (MMC) pulsed onto DC by FR74-specific T cell lines ([2]; IFN-γ ELIspot, FIG. 3B): recognize FRα^+ tumor lysates
immunogenicity when used to generate T cell lines ([2]; using activated DC): relatively non-immunogenic
immunogenicity as a vaccine [3]: highly immunogenic

decanoyl-Arg-Val-Lys-Arg-CH2CL
selectivity for furin [4]: not selective

α1-antitrypsin
selectivity for furin [4]: highly selective for furin
Ki ([4]; furin): 0.6 nM

B1: IFN-γ: cytokine included in T cell culture (protein, UniProt P01579 24-161, looked up)
Interferon gamma: QDPYVKEAENLKKYFNAGHSDVADNGTLFLGILKNWKEESDRKIMQSQIVSFYFKLFKNFKDDQSIQKSVETIKEDMNVKFFNSNKKKRDDFEKLTNYSVTDLNVQRKAIHELIQVMAELSPAAKTGKRKRSQMLFRG
generation of IL-17-secreting Th cells ([5]; FIG. 26): blocks generation of IL-17-secreting Th cells
Th2 effectors (IL-5) in FR74.4 cultures ([5]; cells incubated with FR74.4 with DC and IL-2, FIG. 25): completely blocked
